Measured values from patent US10611797B2, “Peptide having anticancer activity, and pharmaceutical composition and dietary supplement composition for preventing and treating cancer, both of which contain same as active ingredient” (IUCF-HYU (INDUSTRY-UNIVERSITY COOPERATION FOUNDATION …, priority 2015, dated 2020).
Like-named read-outs stand apart in the source and are kept apart here.

Tests used:
[1] = system: normal cell lines (MCF10A, BEAS2B, hMSCs, mouse primary T cells); assay: Microscopic observation of growth inhibition and apoptosis, normal cell lines; settings: 2 μM, 48 h
Method: (§1) Liver cancer cell lines (HepG2, Hep3B), a human embryonic kidney cell line (293T), breast cancer cell lines (MCF-7, MDA-MB-231), blood tumor cell lines (K562, HEL, HL60), glioblastoma cell lines (U251, U373MG, U87MG), a mammary epithelial cell line (MCF10A), a lung epithelial cell line (BEAS2B), human mesenchymal stem cells (hMSCs), and mouse primary T cells (resting and activated T cells) were inoculated into 96-well plates at a density of 3,000 cells/well, supplemented with 50 μl of culture solution, and cultured at 37° C. and 5% CO2 for 1 h. […] After completion of the culture, cells were observed under an inverted phase contrast microscope and their morphological changes were imaged.

[2] = system: BEAS2B and MCF10A normal epithelial cell lines; assay: MTT cell viability / IC50, normal epithelial control cell lines
Method: (§2) Liver cancer cell lines (HepG2, Hep3B) were inoculated into 96-well plates at a density of 3000 cells/well, and then 50 μl of culture solution was added thereto. Cells were cultured at 37° C. and 5% CO2 for 1 h. […] Cells were cultured at 37° C. and 5% CO2 for 24, 48, 72, and 96 h. After completion of the culture, the remaining culture solution was removed from the well plates, the cultures were diluted with MTT solution (3-(4,5-dimethylthiazol-2-yl)-2,5-diphenyltetrazole bromide) to a final density of 500 μg/ml, and cells were cultured at 37° C. and 5% CO2 for 3 h. The remaining MTT solution was removed and 150 μl of dimethyl sulfoxide (DMSO) was added. The reaction was carried out at room temperature for 20 min. After completion of the reaction, absorbance was measured using a microplate reader.

[3] = system: human embryonic stem cells (hESCs, H9); assay: MTT cell viability, human embryonic stem cells co-cultured with MEFs; settings: increasing concentrations; co-culture with MEFs
Text: MEF cells labeled with rhodamine were often used to distinguish them from hESC-derived cells.

[4] = system: human mesenchymal stem cells (hMSC); assay: MTT cell viability, human mesenchymal stem cells; settings: increasing concentrations
[5] = system: cancer cell lines (HepG2, Hep3B, 293T, MCF-7, MDA-MB-231, K562, HEL, HL60, U251, U373MG, U87MG); assay: Microscopic observation of growth inhibition and apoptosis, cancer cell lines; type: cell-based, human; settings: 2 μM, 48 h
Method: as §1

MCF10A cell line = assay: Electron microscopy of cell morphology, MCF10A; settings: 2 μM, 24 and 48 h
Method: 1.5×10^6 cells of MDA-MB-231 cell line and 5×10^5 cells of MCF10A cell line were inoculated into 100 mm dishes. […] After culture for 24 and 48 h, cells were collected. The culture solution was centrifuged and surface adherent cells were collected by trypsin treatment. The collected cells were washed once with physiological saline. The cell sediment was directly treated twice with 2.5% aqueous glutaraldehyde solution (each for 10 min). Samples for electron microscopy were prepared and imaged in accordance with general methods.

MDA-MB-231 cell line = assay: MTT assay of FITC-conjugated peptides in MDA-MB-231; type: cell-based, human; settings: 0, 0.5, 1, 2, 3, 10 μM, 96 h
CP2c [6] = assay: Direct ELISA of GST-fusion mutant CP2c proteins binding to peptide; settings: 19 Ala mutants of CP2c 306-396 region; detected with biotin-tagged Peptide 5-2CB
Text: To support this assumption, a CP2c protein region with which Peptide 5-2C interacts and amino acids in the region directly binding to Peptide 5-2C need to be identified. Thus, an attempt was made to obtain mutant CP2c proteins in which polar amino acids present in the CP2c region binding with Peptide 5 shown in FIG. 1 were substituted with Ala and analyze the binding of the mutant CP2c proteins with Peptide 5-2C by enzyme-linked immunosorbent assay (ELISA). To facilitate this analysis, Peptide 5-2CB was synthesized in which biotin tag is bonded to the C-terminal Pro residue of Peptide 5-2C. To confirm whether Peptide 5-2CB induces cancer cell-specific growth interruption and apoptosis, like Peptide 5-2C, MTT assay was conducted on two different batches of Peptide 5-2CB in MDA-MB-231 cell line and MCF7 cell line by the same method as in Example 5.1. IC50 values were also calculated from the results of MTT assay. To obtain 19 mutant CP2c proteins in which polar amino acids present in the CP2c region binding with Peptide 5-2C were substituted with Ala, oligonucleotides having sequences encoding the corresponding mutant amino acids were synthesized and site-directed mutagenesis was carried out. The base sequences encoding the mutant CP2c genes were cloned into the pGEX4 vector and mutant GST-fusion CP2c proteins were purified using beads bound with antibody against GST-tag. […]

CP2c [7] = target: T1, CP2c (Mus musculus, UniProt Q9ERA0); assay: DNA immunoprecipitation (DIP) assay of CP2c-DNA binding; settings: 0.2, 0.5, and 1 μg peptide; MEL nuclear extract; α-globin promoter probe
T1 construct: 5 μg of the nuclear extract and an [α-32p] dCTP-labeled DNA probe; endogenous in cells; host or cells: MEL (murine erythroid leukemia) cells, HMBA-differentiated, nuclear extract
T1 sequence (Q9ERA0 1-502): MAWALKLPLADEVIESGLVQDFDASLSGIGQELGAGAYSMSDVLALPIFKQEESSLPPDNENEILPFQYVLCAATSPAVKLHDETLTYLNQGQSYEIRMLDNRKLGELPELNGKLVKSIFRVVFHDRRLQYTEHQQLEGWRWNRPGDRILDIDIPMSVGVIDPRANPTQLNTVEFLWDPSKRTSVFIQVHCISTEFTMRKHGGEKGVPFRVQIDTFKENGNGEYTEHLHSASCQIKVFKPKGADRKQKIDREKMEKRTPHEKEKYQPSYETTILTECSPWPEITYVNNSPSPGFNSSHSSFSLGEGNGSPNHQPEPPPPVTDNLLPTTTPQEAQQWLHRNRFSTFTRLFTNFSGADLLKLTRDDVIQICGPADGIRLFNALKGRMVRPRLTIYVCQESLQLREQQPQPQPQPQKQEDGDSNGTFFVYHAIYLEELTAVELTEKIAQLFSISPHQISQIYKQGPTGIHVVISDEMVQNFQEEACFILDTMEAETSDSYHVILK
Method: To analyze whether the five peptides identified in Example 1.1 bind to CP2c in cells to affect the ability of CP2c to bind to DNA, DNA immunoprecipitation (DIP) assay was performed as disclosed in another preceding research conducted by the present inventors (Kim et al., A DNA immunoprecipitation assay used in quantitative detection of in vitro DNA-protein complex binding, Analytical Biochemistry. 2013; 441: 147-151).
In summary, the differentiation of a murine erythroid leukemia (MEL) cell line was induced by treatment with 5 mM hexamethylene bisacetamide (HMBA) and, on day 2 after differentiation, a cellular nuclear extract was separated. […]
Subsequently, 5 μg of the nuclear extract and an [α-32p] dCTP-labeled DNA probe (a sequence corresponding to the common CP2c binding site present in mouse α-globin promoter and between −156 and −124 in the start codon of the α-globin gene, see the paper of Kim et al. for details of the sequence) were allowed to react with a binding buffer (4% glycerol, 10 mM Tris-HCl, 1 mM DTT, 1 mM EDTA, and 0.1% NP-40) for 15 min, and gradually increasing amounts (0.2, 0.5, and 1 μg) of the identified CP2c binding peptides (Peptide 5, Peptide 8, Peptide 13, Peptide 21, and Peptide 31) were added thereto. […] The CP2c protein was removed from the DNA probe and the remaining amount of the DNA probe was measured using a scintillation counter. […]

[8] = system: colon cancer cell lines (HCT116, HT29); assay: MTT cell viability with Peptide 5-2D, colon cancer cell lines; type: cell-based, human; settings: increasing concentrations
Method: as §2

[9] = system: glioblastoma cell lines (U343, U87MG); assay: MTT cell viability with Peptide 5-2D, glioblastoma cell lines; type: cell-based, human; settings: increasing concentrations
Method: as §2

[10] = system: human blood cancer cell lines (U937, Jurkat, HL60, HEL); assay: MTT cell viability with Peptide 5-2D, human blood cancer cell lines; type: cell-based; settings: increasing concentrations
Method: as §2

[11] = system: breast cancer cell lines (MCF7, MDA-MB-231); assay: MTT cell viability, breast cancer cell lines; type: cell-based, human; settings: increasing concentrations
Method: as §2

[12] = system: 293T and HepG2 cell lines; assay: MTT cell viability with Peptide 5-2D, 293T and HepG2; type: cell-based, human; settings: increasing concentrations
Method: as §2

[13] = system: BEAS2B and MCF10A normal epithelial cell lines
Method: as §2

Q: For CCOc1ccccc1C1CC(=O)Nc2cc3c(cc21)OCO3 (centres unmarked) [FQI1, Factor Quinolinone Inhibitor 1], which “effect on normal cell lines (microscopy)” value [1] is on record?
A: inhibited the growth of the normal cell lines

Q: What about the “growth inhibition and apoptosis induction of normal control cell lines (IC50 calculation)” value ([2]; 48 h, MTT) of the same compound?
A: inhibited cell growth and induced apoptosis

Q: What about the “cytotoxicity (MTT) in MCF10A and BEAS2B” value ([2]; increasing concentrations up to 10 μM) of the same compound?
A: concentration-dependent cytotoxicity

Q: And the “cytotoxicity (MTT) in hESCs” value [3]?
A: concentration-dependent cytotoxicity

Q: What about the “cytotoxicity (MTT) in hMSC” value [4] of the same compound?
A: concentration-dependent cytotoxicity

Q: And the “growth inhibition and apoptosis induction of cancer cell lines (microscopy)” value [5]?
A: inhibited the growth of the normal cell lines as well as the cancer cell lines in a concentration-dependent manner and induced apoptosis

Q: And the “intracellular structural abnormalities in MCF10A (electron microscopy)” value (MCF10A cell line)?
A: considerable nuclear disruption was observed at 48 h

Q: With “FITC-iRGD: FITC fluorescently labeled iRGD peptide (CRGDKGPDC)” as the compound, how does the “cell growth (MTT) in MDA-MB-231” value (MDA-MB-231 cell line) read?
A: only the FITC-conjugated Peptide 5-2C inhibited cell growth

Q: With NYPQRP [Peptide 5-2] as the compound, how does the “CP2c amino acids important for peptide binding” value (CP2c [6]) read?
A: E332, R339, R341 and R347 amino acid are important for binding to Peptide 5-2

Q: And the “inhibition of CP2c-DNA binding (DIP assay)” value (CP2c [7])?
A: specifically inhibited the binding between CP2c and DNA

Q: Which “relative viability (MTT), HCT116 and HT29, compared with Peptide 5-2C” value [8] does the source give for “dNP2 peptide sequence (KIKKVKKKGRKGSKIKKVKKKGRKGG) linked to the N-terminal Asn residue of Peptide 5-2 [Peptide 5-2D]” here?
A: inhibited the growth of the glioblastoma cell lines and efficiently induced apoptosis, similarly to Peptide 5-2C

Q: What about the “relative viability (MTT), U343 and U87MG, compared with Peptide 5-2C” value [9] of the same compound?
A: inhibited the growth of the glioblastoma cell lines and efficiently induced apoptosis, similarly to Peptide 5-2C

Q: What about the “relative viability (MTT), U937, Jurkat, HL60, HEL, compared with Peptide 5-2C” value [10] of the same compound?
A: inhibited the growth of the human embryonic kidney cancer cell line and the liver cancer cell line and efficiently induced apoptosis, similarly to Peptide 5-2C

Q: And the “relative viability (MTT), breast cancer cell lines, compared with Peptide 5-2C” value [11]?
A: inhibited the growth of the breast cancer cell lines and efficiently induced apoptosis, similarly to Peptide 5-2C

Q: What about the “relative viability (MTT), 293T and HepG2, compared with Peptide 5-2C” value [12] of the same compound?
A: inhibited the growth of the human embryonic kidney cancer cell line and liver cancer cell line and efficiently induced apoptosis, similarly to Peptide 5-2C

Q: And the “growth inhibition and apoptosis induction of normal control cell lines (IC50 calculation)” value [13]?
A: did not substantially affect the growth inhibition of the normal control cell lines and the induction of apoptosis

Q: And the “relative viability (MTT), MCF10A and BEAS2B, compared with Peptide 5-2C” value [13]?
A: did not affect the growth of the mammary epithelial cell line and the lung epithelial cell line and apoptosis, similarly to Peptide 5-2C
